A short description of series [1]: Pharmacokinetic test in rats. It is filed as in vivo, SD rats. The settings on record: i.g. (5 mg/kg), vehicle 5% DMSO+5% Solutol+10% PEG400+80% (20% SBE-β-CD). The protocol:
Experimental objective: In this experiment, a single dose of the test compound was administered to SD rats via intravenous administration and intragastric gavage, and the concentration of the test compound in plasma of the rats was measured to evaluate the pharmacokinetic profile of the test compound in the rats.
Experimental animals: Male SD rats, 200-220 g, 6 rats/compound, purchased from Chengdu Ddossy Experimental Animals Co., Ltd.
Experimental method: On the day of the experiment, 6 SD rats were randomly grouped according to their body weights. The animals were fasted with water available for 12 to 14 h one day before the administration, and were fed 4 h after the administration. Table 3 Administration information of pharmacokinetic test in rats
Sampling: Before and after the administration, 0.1 mL of blood was taken from the orbits under isoflurane anaesthesia, and placed in an EDTAK2 centrifuge tube. Centrifugation was carried out at 5000 rpm at 4°C for 10 min, and the plasma was collected.
The plasma collection time points for IV&PO groups were 0, 5 min, 15 min, 30 min, 1 h, 2 h, 4 h, 7 h, 24 h, and 48 h.
Before analysis and detection, all samples were stored at -60°C. The samples were analysed quantitatively by LC-MS/MS. Table 4 Pharmacokinetic parameters of compounds of the present invention in plasma of rats

The next series addresses T1, hERG potassium channel (Homo sapiens, UniProt Q12809).
T1 construct: expressed in transfected cells; host or cells: CHO cells stably expressing hERG
The series is described as follows: hERG potassium ion channel test (manual patch-clamp, CHO cells). It is filed as cell-based. The settings on record: chinese hamster; inhibitory activity against hERG potassium channel current, CHO cells, whole cell patch-clamp; read-out: IC50. For orientation: Block of hERG is tested as a sign of cardiac risk.

Series [2] deals with Human CD34+ Hematopoietic stem cells. The series is described as follows: Human CD34+ hematopoietic stem cell proliferation inhibition experiment. It is filed as cell-based. The note with it: 168 h, inhibitory activity against the proliferation of CD34+ hematopoietic stem cells, 7 days. The protocol:
Human CD34+ Hematopoietic stem cells (TPCS, Cat.hmPB34-P-2CW) are CD34-positive stem cells obtained from human PBMCs through immunomagnetic bead sorting. The culture conditions are as follows: DPBS (Gibco, Cat.14190-144) +StemSpan SFEM II ([…], Cat.9655) +1X StemSpan CD34+ Expansion Supplement ([…], Cat.2691). First, 40 nL of DMSO, the positive reference compound Talazoparib, or the test compounds were respectively added to a 384-well plate (Corning, Cat. 3764). Then, a cell suspension was added at 400 cells per well in 40 µL of medium, resulting in final concentrations of 0.1% DMSO, 3 µM Talazoparib, or various concentrations of the compounds in each well. The plate was centrifuged at room temperature at 1000 rpm for 1 minute, followed by incubation for 7 days in a 37°C, 5% CO2 incubator. Following incubation, 20 µL of CellTiter-Glo Reagent (Promega, Cat. G7573) was directly added to each well, and the plate was centrifuged at room temperature at 1000 rpm for 1 minute, followed by incubation for 20 minutes in the dark. Following incubation, the chemiluminescent signal (CFU) was read and recorded using an Envision multimode microplate reader (PerkinElmer, Cat. 2104). The cell proliferation inhibition rate at various compound concentrations was calculated according to Equation (3), where CFUhigh control represents the average signal value of the DMSO group, CFUlow control represents the average signal value of the Talazoparib group, and CFUcompound represents the average signal value of the compound-treated group. The processed data obtained from Equation (3) were analysed using XLfit or GraphPad Prism software, and a four-parameter curve fitting model was applied to calculate the compound concentration corresponding to a 50% inhibition rate, i.e., the IC50 value. Inhibition% = (CFUhigh control−CFUcompound)/(CFUhigh control−CFUlow control) × 100% [formula]

A value given as a limit tells only on which side of the number the result lay.

T1 sequence (Q12809 whole entry): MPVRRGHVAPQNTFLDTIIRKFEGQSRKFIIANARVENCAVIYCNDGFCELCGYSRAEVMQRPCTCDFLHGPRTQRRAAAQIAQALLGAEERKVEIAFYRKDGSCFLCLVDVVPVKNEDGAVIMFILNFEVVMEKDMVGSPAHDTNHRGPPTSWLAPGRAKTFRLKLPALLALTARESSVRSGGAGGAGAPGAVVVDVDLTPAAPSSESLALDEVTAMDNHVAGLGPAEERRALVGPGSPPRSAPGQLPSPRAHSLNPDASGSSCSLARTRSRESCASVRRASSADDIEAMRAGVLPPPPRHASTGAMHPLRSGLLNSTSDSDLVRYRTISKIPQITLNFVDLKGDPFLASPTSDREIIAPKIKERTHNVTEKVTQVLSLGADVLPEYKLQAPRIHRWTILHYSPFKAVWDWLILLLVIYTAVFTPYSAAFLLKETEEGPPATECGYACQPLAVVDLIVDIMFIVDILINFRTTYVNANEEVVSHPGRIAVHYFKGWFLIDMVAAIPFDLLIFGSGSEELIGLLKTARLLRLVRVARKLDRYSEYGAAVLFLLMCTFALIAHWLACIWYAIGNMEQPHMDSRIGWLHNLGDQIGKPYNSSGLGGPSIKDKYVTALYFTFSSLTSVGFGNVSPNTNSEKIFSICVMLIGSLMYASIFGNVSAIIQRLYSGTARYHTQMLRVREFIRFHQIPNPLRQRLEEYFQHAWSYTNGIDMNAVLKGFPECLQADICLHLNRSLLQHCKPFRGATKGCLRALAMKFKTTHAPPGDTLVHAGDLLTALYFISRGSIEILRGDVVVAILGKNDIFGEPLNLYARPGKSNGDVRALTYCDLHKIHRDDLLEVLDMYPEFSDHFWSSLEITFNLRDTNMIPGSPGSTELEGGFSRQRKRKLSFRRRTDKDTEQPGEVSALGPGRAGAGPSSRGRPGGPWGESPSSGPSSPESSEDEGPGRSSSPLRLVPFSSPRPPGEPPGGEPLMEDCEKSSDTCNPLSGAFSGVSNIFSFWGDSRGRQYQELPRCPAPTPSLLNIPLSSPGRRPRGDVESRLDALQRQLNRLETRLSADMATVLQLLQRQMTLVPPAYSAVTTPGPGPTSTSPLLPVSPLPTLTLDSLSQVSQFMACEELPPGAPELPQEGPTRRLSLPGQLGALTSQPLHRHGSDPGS

With `CC1(C)[C@H](NC(=O)c2ccc(N3CCC(CN4CCN5c6cc(F)c(C7CCC(=O)NC7=O)cc6CC[C@H]5C4)CC3)cc2)C(C)(C)[C@H]1Oc1ccc(C#N)c2ncccc12` (stereo partly shown) [Compound 31], in series [1], the F was 49.1+12%. In addition, the AUC(0-t) in series [1] (rat, plasma, po) came to 5430 ± 1360 ng·h/mL. The values for the IC50 (at hERG potassium channel; in series [2]) were over 40 µM and over 10 µM, respectively.

What is called AUC(0-t) is exposure summed from dosing to a finite time, without extrapolation to infinity. Read a high AUC(0-t) as high exposure. Usually IC50 stands for the point on the concentration scale where inhibition reaches its midpoint.

For the origin of these results see patent EP4763845A1, “CYANO AROMATIC RING DERIVATIVE AND PHARMACEUTICAL USE THEREOF” (Haisco Pharmaceutical Group Co., Ltd., priority 2023, dated 2025).
